This is an account of results in publication PMC12406203 (Journal of Medicinal Chemistry, 2025).

Experiment in all cases: KINOMEscan
Holding throughout (format): binding

In one assay the target is T1, ALK (Homo sapiens, UniProt Q9UM73).
T1 construct: purchased Eurofins DiscoverX, LLC; host or cells: E. coli BL21-derived (T7 phage) or HEK-293

A further assay addresses T2, CDK3 (Homo sapiens, UniProt Q00526).
T2 construct: purchased Eurofins DiscoverX, LLC; host or cells: E. coli BL21-derived (T7 phage) or HEK-293

Another assay concerns the target T3, CHEK1 (Homo sapiens, UniProt O14757).
T3 construct: purchased Eurofins DiscoverX, LLC; host or cells: E. coli (T7 phage) or HEK-293
T3 sequence (O14757 1-476): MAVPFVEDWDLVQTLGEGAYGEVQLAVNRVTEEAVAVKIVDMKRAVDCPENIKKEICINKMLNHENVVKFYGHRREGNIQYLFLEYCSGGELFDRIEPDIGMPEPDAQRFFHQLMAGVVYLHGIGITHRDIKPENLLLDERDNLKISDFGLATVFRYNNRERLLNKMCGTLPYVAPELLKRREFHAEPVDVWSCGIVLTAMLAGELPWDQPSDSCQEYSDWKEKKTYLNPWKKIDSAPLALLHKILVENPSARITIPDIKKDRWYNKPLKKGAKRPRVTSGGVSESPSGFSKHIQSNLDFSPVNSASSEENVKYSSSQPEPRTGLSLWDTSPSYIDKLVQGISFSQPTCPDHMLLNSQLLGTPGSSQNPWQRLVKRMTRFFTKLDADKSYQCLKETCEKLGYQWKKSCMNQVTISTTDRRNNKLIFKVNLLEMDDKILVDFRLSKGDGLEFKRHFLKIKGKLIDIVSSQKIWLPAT

The next assay addresses T4, DCAMKL1 (Homo sapiens, UniProt O15075).
T4 construct: purchased Eurofins DiscoverX, LLC; host or cells: E. coli (T7 phage) or HEK-293
T4 sequence (O15075 1-740): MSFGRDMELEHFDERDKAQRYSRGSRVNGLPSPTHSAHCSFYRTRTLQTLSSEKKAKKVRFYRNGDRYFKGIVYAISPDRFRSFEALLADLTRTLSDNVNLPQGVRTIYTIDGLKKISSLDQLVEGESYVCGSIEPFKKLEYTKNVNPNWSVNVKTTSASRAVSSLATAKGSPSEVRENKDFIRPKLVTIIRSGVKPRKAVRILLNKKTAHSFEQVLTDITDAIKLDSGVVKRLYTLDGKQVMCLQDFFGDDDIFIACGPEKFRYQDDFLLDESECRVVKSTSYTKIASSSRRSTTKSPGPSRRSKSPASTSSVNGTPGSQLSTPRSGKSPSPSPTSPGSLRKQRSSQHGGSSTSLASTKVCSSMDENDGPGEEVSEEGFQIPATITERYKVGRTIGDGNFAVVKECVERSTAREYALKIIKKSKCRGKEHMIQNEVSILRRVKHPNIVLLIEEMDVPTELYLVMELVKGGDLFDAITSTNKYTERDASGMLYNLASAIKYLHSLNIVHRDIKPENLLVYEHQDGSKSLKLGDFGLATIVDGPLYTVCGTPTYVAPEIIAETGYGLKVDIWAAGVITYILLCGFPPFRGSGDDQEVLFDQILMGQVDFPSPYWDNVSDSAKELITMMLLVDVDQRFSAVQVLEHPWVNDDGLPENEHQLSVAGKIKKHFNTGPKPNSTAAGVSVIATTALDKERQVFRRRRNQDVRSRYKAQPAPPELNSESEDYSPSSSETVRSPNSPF

The next assay deals with T5, EGFR (Homo sapiens, UniProt P00533).
T5 construct: purchased Eurofins DiscoverX, LLC; host or cells: E. coli (T7 phage) or HEK-293

The target of assay [1] is T6, JAK2(JH1domain-catalytic) (Homo sapiens, UniProt O60674).
T6 construct: JAK2(JH1domain-; purchased Eurofins DiscoverX, LLC; host or cells: E. coli (T7 phage) or HEK-293

A further assay deals with T7, MEK2 (Homo sapiens, UniProt P36507).
T7 construct: purchased Eurofins DiscoverX, LLC; host or cells: E. coli (BL21-derived, T7 phage) or HEK-293

The target of a further assay is T8, PAK2 (Homo sapiens, UniProt Q13177).
T8 construct: purchased Eurofins DiscoverX, LLC; host or cells: E. coli (BL21-derived, T7 phage) or HEK-293

The next assay concerns the target T9, PDGFRA (Homo sapiens, UniProt P16234).
T9 construct: purchased Eurofins DiscoverX, LLC; host or cells: E. coli BL21-derived host (T7 phage) or HEK-293

The target of a further assay is T10, PIM1 (Homo sapiens, UniProt P11309).
T10 construct: purchased Eurofins DiscoverX, LLC; host or cells: E. coli BL21-derived host (T7 phage) or HEK-293
T10 sequence (P11309 whole entry): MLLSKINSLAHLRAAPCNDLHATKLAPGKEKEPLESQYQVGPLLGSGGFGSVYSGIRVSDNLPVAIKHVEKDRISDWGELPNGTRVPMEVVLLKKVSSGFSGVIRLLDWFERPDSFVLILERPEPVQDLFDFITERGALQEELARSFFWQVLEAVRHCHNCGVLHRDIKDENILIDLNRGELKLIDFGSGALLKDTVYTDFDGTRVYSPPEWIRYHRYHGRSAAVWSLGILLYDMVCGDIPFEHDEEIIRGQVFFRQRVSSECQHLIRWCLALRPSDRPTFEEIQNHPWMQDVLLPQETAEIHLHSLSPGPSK

T1 sequence (Q9UM73 19-1620): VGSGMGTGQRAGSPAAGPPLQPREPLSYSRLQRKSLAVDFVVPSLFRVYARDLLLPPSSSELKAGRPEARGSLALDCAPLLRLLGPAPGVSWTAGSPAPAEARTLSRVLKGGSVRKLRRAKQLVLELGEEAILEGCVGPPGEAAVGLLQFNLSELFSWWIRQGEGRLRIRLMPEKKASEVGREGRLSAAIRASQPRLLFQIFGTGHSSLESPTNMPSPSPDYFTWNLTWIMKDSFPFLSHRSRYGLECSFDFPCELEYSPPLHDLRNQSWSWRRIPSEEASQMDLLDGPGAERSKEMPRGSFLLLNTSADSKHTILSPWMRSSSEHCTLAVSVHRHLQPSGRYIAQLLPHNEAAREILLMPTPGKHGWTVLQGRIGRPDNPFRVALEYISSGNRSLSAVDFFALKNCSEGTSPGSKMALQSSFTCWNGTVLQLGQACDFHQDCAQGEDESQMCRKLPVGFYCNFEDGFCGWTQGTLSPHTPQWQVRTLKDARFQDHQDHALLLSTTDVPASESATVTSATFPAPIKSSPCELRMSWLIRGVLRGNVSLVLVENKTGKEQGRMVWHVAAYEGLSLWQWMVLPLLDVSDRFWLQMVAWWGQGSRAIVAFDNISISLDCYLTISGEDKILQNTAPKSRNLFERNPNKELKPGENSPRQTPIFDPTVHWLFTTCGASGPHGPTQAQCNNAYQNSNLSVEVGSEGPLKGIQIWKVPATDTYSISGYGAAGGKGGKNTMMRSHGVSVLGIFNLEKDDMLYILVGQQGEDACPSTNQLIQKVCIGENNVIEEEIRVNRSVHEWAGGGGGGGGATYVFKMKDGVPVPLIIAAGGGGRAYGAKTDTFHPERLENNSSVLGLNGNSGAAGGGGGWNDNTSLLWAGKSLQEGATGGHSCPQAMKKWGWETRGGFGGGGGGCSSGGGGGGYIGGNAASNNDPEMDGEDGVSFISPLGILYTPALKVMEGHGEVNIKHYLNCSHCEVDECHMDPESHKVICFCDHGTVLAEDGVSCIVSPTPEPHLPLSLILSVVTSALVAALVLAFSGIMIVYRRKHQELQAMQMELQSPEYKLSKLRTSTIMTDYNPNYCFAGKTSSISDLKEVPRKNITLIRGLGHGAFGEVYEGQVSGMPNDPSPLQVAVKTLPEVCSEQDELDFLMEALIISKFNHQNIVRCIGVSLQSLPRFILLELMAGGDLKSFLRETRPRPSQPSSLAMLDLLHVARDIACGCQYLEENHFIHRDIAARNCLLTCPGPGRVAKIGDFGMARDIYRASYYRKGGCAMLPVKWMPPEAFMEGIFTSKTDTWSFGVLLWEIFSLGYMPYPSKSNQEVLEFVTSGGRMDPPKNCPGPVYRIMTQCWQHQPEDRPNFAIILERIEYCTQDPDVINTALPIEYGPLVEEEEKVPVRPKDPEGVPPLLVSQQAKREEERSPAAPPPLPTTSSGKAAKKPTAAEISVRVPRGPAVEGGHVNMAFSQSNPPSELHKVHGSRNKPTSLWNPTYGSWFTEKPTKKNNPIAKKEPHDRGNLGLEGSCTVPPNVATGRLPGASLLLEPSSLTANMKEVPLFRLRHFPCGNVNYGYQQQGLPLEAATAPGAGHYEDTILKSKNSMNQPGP
T7 sequence (P36507 whole entry): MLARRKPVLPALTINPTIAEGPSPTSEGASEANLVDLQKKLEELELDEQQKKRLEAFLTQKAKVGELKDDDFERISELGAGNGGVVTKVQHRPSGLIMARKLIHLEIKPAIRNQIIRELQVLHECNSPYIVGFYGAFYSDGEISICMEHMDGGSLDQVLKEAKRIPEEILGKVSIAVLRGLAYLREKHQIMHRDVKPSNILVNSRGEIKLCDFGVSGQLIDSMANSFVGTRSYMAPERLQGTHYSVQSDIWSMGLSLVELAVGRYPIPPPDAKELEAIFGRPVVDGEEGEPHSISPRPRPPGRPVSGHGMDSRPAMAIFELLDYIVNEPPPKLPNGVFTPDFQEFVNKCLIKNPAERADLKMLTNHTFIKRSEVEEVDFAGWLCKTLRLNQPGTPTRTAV
T8 sequence (Q13177 whole entry): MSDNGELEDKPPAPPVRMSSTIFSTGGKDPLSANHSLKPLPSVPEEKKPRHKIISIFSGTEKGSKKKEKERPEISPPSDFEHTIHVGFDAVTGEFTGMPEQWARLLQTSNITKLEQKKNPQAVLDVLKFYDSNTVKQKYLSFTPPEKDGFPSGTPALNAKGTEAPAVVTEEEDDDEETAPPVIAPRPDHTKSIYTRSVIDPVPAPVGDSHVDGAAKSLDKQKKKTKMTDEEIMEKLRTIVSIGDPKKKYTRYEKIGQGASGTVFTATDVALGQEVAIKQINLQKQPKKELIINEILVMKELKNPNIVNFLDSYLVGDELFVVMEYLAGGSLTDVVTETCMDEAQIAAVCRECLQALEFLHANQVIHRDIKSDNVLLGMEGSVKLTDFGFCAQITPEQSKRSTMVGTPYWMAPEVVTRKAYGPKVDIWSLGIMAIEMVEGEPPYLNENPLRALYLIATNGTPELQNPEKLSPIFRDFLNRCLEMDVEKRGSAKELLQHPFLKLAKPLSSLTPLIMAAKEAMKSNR
T5 sequence (P00533 25-1210): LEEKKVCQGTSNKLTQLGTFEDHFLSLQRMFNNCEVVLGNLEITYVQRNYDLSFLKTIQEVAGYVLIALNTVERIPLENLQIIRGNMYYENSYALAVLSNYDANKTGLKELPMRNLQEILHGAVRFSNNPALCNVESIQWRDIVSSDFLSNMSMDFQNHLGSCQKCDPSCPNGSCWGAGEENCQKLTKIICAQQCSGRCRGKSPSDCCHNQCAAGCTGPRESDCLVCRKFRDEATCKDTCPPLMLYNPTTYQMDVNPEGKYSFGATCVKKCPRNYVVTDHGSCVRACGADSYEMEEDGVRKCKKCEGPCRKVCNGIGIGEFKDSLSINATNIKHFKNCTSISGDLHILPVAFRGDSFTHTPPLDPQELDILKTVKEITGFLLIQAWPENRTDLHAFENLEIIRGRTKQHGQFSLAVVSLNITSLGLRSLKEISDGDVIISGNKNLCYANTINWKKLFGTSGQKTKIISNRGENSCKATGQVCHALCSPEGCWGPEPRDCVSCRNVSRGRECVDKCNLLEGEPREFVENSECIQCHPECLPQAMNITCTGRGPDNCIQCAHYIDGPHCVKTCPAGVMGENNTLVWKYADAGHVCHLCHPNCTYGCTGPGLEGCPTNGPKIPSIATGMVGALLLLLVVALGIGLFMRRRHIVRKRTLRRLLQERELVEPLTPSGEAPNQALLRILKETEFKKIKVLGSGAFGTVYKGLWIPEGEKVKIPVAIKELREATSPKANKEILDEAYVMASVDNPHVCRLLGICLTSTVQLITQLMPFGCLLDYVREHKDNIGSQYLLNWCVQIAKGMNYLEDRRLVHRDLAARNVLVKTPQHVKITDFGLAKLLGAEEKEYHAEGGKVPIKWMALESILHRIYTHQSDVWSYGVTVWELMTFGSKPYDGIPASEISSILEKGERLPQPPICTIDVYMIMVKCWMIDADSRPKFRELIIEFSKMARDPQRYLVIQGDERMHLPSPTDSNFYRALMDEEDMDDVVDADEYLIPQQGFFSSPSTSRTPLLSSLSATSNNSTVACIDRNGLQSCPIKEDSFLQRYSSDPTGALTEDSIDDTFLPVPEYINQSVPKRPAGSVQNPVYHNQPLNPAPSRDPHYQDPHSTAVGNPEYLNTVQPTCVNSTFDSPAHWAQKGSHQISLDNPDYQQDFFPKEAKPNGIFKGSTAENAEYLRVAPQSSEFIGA
T6 sequence (O60674 849-1124 limits assumed): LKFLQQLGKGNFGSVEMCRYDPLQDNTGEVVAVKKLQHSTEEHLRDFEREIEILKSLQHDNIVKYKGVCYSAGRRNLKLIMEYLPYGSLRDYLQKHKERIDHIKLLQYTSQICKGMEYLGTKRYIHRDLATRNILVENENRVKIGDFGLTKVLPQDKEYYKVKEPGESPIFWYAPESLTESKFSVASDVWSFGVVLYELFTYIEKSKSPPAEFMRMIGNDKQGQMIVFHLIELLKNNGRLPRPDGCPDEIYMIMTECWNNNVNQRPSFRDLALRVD
T2 sequence (Q00526 whole entry): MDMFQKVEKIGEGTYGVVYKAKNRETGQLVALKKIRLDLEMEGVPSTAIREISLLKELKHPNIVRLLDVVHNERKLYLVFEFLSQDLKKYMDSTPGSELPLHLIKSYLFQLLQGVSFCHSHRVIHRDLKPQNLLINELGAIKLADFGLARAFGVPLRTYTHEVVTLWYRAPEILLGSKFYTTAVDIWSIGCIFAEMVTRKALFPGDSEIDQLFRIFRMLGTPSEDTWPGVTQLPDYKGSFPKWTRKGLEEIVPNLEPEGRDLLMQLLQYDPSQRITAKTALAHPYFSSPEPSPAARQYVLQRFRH

Regarding `CN(C)CCNC(=O)c1cc2c(cnn2CC2CCCCC2)cc1Cc1ccc(F)cc1F` [Compound 95, 1-(Cyclohexylmethyl)-5-(2,4-difluorobenzyl)-N-(2-(dimethylamino)ethyl)-1H-indazole-6-carboxamide], the “RA @ 1000nM” value at ALK was determined as 62%; on CDK3, 100%; on CHEK1 it was 100%; on DCAMKL1 it was 100%; at EGFR, 100%; in assay [1], 100%. Besides, the “RA @ 1000nM” value at MEK2 was 95%; at PAK2, 100%; at PDGFRA, 92%; on PIM1, 100%. For the same compound, the “RA @ 10000nM” value on ALK was 92%; at CDK3, 100%; at CHEK1, 100%; on DCAMKL1, 100%; at EGFR it was 100%; in assay [1], 100%. Besides, the “RA @ 10000nM” value stood at 100% on MEK2, 95% on PAK2, 92% at PDGFRA and 94% at PIM1.
As for `CC(C)Cn1ncc2cc(Cc3ccc(F)cc3F)c(C(=O)NCCN(C)C)cc21` [Compound 94, 5-(2,4-Difluorobenzyl)-N-(2-(dimethylamino)ethyl)-1-isobutyl-1H-indazole-6-carboxamide], the “RA @ 1000nM” value on ALK amounted to 93%; on CDK3, 100%; at CHEK1, 100%; at DCAMKL1, 100%; at EGFR, 98%; in assay [1], 98%. Further, the “RA @ 1000nM” value on MEK2 is reported as 86%; on PAK2, 100%; on PDGFRA, 96%; on PIM1 it was 95%. For the same compound, the “RA @ 10000nM” value on ALK is given as 83%; at CDK3 it was 1.3%; at CHEK1 it was 100%; on DCAMKL1, 100%; at EGFR, 69%; in assay [1], 100%. Besides, the “RA @ 10000nM” value is 80% on MEK2, 97% on PAK2, 76% on PDGFRA and 100% on PIM1.
